Experimental data as given in ChEMBL document CHEMBL5236617, “Rapid Evolution of a Fragment-like Molecule to Pan-Metallo-Beta-Lactamase Inhibitors: Initial Leads toward Clinical Candidates” (J Med Chem, 2022).
The source made the active and inactive calls. The rule behind the calls is not given here.

tested on: not listed separately; test: Inhibition of GST-tagged bacterial beta-lactamase […] expressed in Escherichia coli BL21(DE3) using CCF2-FA as substrate by fluorescence assay; set-up: species or system Bacteria; details: not given

SMILES	IC50 [nM]
CCCCc1nc2ccc(O)cc2c(=O)n1Cc1ccc(-c2ccccc2-c2nnn[nH]2)cc1	52
NS(=O)(=O)c1nccc(-c2ccccc2)c1-c1nn[nH]n1	35
NCCNC(=O)C[N+]12CC[N+](Cc3ccc(-c4ccc(C[C@H](C(=O)O)[C@H](Cc5ccccc5)C(=O)O)cc4)cc3)(CC1)CC2	> 200
CC(CS)C(=O)N1CCc2ccccc2C1C(=O)O (centres undefined)	3.5
NS(=O)(=O)c1cncc(-c2ccc(CO)cc2)c1-c1nn[nH]n1	21
Cc1ccc(-c2cccc(C(=O)O)c2-c2nnn[nH]2)cc1	3170
Nc1cc(-c2nnn[nH]2)c(S(N)(=O)=O)cc1S(N)(=O)=O	3.3
Cc1ccc(-c2cccc(S(=O)(=O)O)c2-c2nnn[nH]2)cc1	4960
CNS(=O)(=O)c1cccc(-c2ccc(C)cc2)c1-c1nnn[nH]1	15800
CCCc1c(OCc2cccc(-c3ccccc3-c3nnn[nH]3)c2)ccc(C(C)=O)c1O	35

tested on: Escherichia coli; test: Potentiation of imipenem-induced antibacterial activity against NDM-1 expressing Escherichia coli assessed as imipenem MIC incubated for 22 to 24 hrs (reference value: 32 ug/ml); assay type: functional; details: time 22-24 hrs

SMILES	MITC95 [µM]
NS(=O)(=O)c1nccc(-c2ccccc2)c1-c1nn[nH]n1	<0.195
NS(=O)(=O)c1cncc(-c2ccc(CO)cc2)c1-c1nn[nH]n1	1.56

target: Voltage-gated inwardly rectifying potassium channel KCNH2 (Homo sapiens, UniProt Q12809); test: Displacement of MK499 from human ERG; details: not given
Sequence (Q12809 whole entry): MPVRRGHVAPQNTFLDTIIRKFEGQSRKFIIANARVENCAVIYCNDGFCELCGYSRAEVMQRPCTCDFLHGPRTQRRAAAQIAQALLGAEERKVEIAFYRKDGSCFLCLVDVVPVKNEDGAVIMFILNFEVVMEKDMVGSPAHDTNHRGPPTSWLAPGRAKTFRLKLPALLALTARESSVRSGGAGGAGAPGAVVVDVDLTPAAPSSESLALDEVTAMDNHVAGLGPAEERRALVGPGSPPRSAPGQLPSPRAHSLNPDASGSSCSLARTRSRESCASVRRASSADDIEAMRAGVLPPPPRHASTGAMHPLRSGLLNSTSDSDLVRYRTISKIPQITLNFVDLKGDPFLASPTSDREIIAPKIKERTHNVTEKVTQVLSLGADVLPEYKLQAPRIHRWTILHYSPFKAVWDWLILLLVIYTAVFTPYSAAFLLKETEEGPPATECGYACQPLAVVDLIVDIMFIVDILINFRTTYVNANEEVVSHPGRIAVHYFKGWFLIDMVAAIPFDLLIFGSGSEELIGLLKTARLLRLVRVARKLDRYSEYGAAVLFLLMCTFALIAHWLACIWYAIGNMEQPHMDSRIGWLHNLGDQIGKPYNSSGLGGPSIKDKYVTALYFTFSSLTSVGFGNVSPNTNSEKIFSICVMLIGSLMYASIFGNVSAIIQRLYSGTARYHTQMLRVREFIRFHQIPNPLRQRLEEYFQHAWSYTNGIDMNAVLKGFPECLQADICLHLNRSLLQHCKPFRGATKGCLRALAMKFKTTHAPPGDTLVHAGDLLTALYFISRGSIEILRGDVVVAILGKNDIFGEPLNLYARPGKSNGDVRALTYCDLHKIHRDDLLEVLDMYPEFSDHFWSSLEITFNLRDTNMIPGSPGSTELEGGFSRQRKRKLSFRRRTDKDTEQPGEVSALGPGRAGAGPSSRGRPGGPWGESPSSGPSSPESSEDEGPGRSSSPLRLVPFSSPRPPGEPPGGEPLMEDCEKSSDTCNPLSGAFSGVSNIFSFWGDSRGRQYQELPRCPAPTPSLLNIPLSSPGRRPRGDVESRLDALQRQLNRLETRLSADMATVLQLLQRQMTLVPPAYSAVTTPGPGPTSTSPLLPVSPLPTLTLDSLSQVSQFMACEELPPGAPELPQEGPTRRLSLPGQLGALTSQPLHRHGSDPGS

SMILES	IC50 [µM]
NS(=O)(=O)c1nccc(-c2ccc(CO)cc2)c1-c1nnn[nH]1	> 60

tested on: not listed separately; test: Tmax in mouse at 50 mg/kg, sc; assay type: ADME, organism-based; details: in vivo

SMILES	Tmax [min]
NS(=O)(=O)c1nccc(-c2ccc(CO)cc2)c1-c1nnn[nH]1	30

target: Cytochrome P450 2D6 (Homo sapiens, UniProt P10635); test: Reversible inhibition of CYP2D6 (unknown origin); assay type: ADME; details: not given
Sequence (P10635 whole entry): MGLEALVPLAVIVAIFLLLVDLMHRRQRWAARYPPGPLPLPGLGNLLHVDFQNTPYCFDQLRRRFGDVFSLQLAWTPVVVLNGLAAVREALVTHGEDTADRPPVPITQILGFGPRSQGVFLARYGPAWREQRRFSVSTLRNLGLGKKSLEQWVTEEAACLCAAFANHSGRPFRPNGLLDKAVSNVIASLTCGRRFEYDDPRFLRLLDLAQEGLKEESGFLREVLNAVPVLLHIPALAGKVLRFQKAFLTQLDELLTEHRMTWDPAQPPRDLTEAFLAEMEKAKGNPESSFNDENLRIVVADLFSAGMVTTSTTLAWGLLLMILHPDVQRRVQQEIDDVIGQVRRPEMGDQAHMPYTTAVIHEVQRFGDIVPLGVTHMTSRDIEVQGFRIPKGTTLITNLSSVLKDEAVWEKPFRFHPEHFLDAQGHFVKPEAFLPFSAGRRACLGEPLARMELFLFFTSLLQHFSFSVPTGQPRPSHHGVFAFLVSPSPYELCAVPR

SMILES	IC50 [µM]
NS(=O)(=O)c1nccc(-c2ccc(CO)cc2)c1-c1nnn[nH]1	> 30

tested on: not listed separately; test: MRT in mouse at 5 mg/kg, iv; assay type: ADME, organism-based; details: in vivo

SMILES	MRT [h]
NS(=O)(=O)c1nccc(-c2ccc(CO)cc2)c1-c1nnn[nH]1	5.2

target: T1, PXR (NR1I2) (Homo sapiens, UniProt O75469); test: Inhibition of human PXR at 30 uM relative to control; details: not given
T1 sequence (O75469 whole entry): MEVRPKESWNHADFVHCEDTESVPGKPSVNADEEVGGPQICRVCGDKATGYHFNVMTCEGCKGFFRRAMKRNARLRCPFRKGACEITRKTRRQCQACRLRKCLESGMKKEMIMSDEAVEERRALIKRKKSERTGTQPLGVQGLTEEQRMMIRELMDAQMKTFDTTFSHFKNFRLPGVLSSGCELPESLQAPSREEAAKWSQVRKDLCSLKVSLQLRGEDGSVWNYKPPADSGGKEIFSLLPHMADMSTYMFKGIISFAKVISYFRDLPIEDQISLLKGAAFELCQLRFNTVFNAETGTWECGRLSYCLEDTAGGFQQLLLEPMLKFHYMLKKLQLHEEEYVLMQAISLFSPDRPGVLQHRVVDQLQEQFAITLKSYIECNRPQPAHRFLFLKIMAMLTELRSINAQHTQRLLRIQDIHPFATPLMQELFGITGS

SMILES	Emax at 30 µM [%]
NS(=O)(=O)c1nccc(-c2ccc(CO)cc2)c1-c1nnn[nH]1	1.94

tested on: not listed separately; test: Cmax in mouse at 50 mg/kg, sc; assay type: ADME, organism-based; set-up: dose 50 mg/kg, route sc; details: in vivo

SMILES	Cmax [µM]
NS(=O)(=O)c1nccc(-c2ccc(CO)cc2)c1-c1nnn[nH]1	69.1

target: Cytochrome P450 3A4 (Homo sapiens, UniProt P08684); test: Reversible inhibition of CYP3A4 (unknown origin); assay type: ADME; details: not given
Sequence (P08684 whole entry): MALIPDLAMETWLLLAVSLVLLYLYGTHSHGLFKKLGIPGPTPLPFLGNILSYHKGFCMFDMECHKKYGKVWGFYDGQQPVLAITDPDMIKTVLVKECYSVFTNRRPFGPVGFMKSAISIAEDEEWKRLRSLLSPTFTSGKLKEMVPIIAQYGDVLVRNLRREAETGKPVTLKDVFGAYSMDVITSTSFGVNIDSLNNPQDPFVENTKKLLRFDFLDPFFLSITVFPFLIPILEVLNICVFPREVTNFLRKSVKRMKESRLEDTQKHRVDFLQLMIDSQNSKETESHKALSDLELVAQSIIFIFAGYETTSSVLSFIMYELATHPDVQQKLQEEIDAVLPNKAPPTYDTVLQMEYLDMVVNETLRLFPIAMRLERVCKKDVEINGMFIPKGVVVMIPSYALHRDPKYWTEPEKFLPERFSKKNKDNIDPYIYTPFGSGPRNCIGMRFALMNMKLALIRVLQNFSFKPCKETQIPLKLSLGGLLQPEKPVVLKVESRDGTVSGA

SMILES	IC50 [µM]
NS(=O)(=O)c1nccc(-c2ccc(CO)cc2)c1-c1nnn[nH]1	> 30

target: CYP3A4 (Homo sapiens, UniProt P08684); test: in vitro; details: not given
Sequence (P08684 whole entry): as above

SMILES	IC50 shift
NS(=O)(=O)c1nccc(-c2ccc(CO)cc2)c1-c1nnn[nH]1	1

tested on: not listed separately; test: Clearance in mouse at 5 mg/kg, iv; assay type: ADME, organism-based; details: in vivo

SMILES	clearance [mL/min/kg]
NS(=O)(=O)c1nccc(-c2ccc(CO)cc2)c1-c1nnn[nH]1	9.33

target: Sodium channel protein type 5 subunit alpha (Homo sapiens, UniProt Q14524); test: Inhibition of Nav1.5 (unknown origin); details: not given
Sequence (Q14524 whole entry): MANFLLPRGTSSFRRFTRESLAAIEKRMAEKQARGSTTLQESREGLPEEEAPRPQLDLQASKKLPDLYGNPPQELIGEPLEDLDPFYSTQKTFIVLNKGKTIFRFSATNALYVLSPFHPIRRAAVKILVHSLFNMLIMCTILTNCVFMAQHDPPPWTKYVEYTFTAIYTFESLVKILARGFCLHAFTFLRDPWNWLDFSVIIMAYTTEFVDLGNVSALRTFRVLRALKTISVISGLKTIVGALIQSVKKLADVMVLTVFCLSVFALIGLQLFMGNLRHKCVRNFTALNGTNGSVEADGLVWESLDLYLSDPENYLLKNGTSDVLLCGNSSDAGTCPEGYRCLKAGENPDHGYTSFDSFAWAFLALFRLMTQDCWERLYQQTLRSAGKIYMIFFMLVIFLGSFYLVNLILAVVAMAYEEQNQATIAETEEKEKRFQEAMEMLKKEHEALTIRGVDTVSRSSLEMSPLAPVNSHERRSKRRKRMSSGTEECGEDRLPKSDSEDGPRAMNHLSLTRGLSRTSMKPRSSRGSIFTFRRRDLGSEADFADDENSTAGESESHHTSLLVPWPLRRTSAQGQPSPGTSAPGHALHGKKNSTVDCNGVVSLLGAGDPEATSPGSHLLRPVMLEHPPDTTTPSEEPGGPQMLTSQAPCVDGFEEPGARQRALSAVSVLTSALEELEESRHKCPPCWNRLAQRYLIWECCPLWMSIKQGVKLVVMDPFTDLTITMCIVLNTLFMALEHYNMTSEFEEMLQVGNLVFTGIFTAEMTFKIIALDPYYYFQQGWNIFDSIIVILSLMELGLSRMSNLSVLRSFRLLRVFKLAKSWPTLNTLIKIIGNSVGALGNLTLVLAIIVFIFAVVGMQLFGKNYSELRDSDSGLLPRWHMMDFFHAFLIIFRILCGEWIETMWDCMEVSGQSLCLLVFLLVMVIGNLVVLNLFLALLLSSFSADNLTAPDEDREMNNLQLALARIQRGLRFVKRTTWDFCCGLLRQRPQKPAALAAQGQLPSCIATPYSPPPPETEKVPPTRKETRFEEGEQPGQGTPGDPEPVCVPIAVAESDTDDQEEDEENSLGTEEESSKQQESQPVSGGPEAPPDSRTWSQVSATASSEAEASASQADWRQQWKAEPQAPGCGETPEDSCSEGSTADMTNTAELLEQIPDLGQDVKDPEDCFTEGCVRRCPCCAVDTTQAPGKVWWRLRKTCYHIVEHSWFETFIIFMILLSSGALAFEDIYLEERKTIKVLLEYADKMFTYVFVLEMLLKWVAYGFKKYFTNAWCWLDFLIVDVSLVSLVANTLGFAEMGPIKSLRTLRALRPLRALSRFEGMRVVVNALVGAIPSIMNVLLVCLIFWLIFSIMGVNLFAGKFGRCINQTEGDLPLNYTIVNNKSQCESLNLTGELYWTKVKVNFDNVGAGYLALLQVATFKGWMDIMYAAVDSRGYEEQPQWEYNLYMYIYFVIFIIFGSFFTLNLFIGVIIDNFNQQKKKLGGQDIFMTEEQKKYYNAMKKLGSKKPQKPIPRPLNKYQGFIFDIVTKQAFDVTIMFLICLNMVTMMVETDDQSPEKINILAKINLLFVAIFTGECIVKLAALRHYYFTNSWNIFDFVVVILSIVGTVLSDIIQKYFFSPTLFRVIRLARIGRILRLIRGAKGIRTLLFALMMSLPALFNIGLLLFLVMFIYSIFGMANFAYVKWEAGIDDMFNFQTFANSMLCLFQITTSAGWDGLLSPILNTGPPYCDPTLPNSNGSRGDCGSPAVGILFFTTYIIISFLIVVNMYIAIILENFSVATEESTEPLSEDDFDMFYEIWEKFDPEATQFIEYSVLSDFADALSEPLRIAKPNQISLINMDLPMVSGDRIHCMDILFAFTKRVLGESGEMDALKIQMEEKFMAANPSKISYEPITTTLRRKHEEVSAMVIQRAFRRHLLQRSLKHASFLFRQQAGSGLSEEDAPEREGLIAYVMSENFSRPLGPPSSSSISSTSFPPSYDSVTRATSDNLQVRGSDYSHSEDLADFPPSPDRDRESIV

SMILES	IC50 [µM]
NS(=O)(=O)c1nccc(-c2ccc(CO)cc2)c1-c1nnn[nH]1	> 30

target: T2, Nuclear receptor subfamily 1 group I member 2 (Homo sapiens, UniProt O75469); test: Inhibition of human PXR; details: not given
T2 sequence (O75469 whole entry): T1 sequence (O75469 whole entry)

SMILES	IC50 [µM]
NS(=O)(=O)c1nccc(-c2ccc(CO)cc2)c1-c1nnn[nH]1	> 30

tested on: not listed separately; test: Plasma protein binding in C57BL/6 mouse assessed as unbound fraction; assay type: ADME, cell-free; details: not given

SMILES	fraction unbound
NS(=O)(=O)c1nccc(-c2ccc(CO)cc2)c1-c1nnn[nH]1	0.43

target: Cytochrome P450 2C9 (Homo sapiens, UniProt P11712); test: Reversible inhibition of CYP2C9 (unknown origin); assay type: ADME; details: not given
Sequence (P11712 whole entry): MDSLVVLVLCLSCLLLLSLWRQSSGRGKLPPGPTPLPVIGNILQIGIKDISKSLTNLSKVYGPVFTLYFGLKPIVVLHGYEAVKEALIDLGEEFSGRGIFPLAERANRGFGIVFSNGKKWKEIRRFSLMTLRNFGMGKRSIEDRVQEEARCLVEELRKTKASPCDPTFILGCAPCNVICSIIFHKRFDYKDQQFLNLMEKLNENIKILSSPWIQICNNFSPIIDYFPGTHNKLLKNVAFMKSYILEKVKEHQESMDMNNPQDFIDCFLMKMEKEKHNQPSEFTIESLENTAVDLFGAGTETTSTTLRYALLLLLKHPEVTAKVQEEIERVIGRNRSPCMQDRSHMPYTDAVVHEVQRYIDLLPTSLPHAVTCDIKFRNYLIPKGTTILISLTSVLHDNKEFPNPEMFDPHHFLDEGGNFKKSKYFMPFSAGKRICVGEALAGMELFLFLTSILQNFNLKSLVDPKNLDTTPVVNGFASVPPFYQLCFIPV

SMILES	IC50 [µM]
NS(=O)(=O)c1nccc(-c2ccc(CO)cc2)c1-c1nnn[nH]1	> 30

tested on: Klebsiella pneumoniae; test: Potentiation of imipenem-induced antibacterial activity against VIM-1 expressing Klebsiella pneumoniae assessed as imipenem MIC incubated for 22 to 24 hrs (reference value: 16 ug/ml); assay type: functional; details: time 22-24 hrs

SMILES	MITC95 [µM]
NS(=O)(=O)c1cncc(-c2ccc(CO)cc2)c1-c1nn[nH]n1	100

tested on: not listed separately; test: AUC in mouse at 10 mg/kg, sc; assay type: ADME, organism-based; set-up: dose 10 mg/kg, route sc; details: in vivo

SMILES	AUC [µM·h]
NS(=O)(=O)c1nccc(-c2ccc(CO)cc2)c1-c1nnn[nH]1	27.4

tested on: not listed separately; test: AUC in mouse at 50 mg/kg, sc; assay type: ADME, organism-based; set-up: dose 50 mg/kg, route sc; details: in vivo

SMILES	AUC [µM·h]
NS(=O)(=O)c1nccc(-c2ccc(CO)cc2)c1-c1nnn[nH]1	111

tested on: not listed separately; test: Plasma protein binding in Wistar Han rat assessed as unbound fraction; assay type: ADME, cell-free; details: not given

SMILES	fraction unbound
NS(=O)(=O)c1nccc(-c2ccc(CO)cc2)c1-c1nnn[nH]1	0.3

tested on: not listed separately; test: AUC in mouse at 5 mg/kg, iv; assay type: ADME, organism-based; set-up: dose 5 mg/kg, route iv; details: in vivo

SMILES	AUC [µM·h]
NS(=O)(=O)c1nccc(-c2ccc(CO)cc2)c1-c1nnn[nH]1	27.1

tested on: not listed separately; test: Inhibition of GST-tagged bacterial beta-lactamase VIM-1 expressed in Escherichia coli BL21(DE3) using CCF2-FA as substrate by fluorescence assay; set-up: species or system Bacteria; details: not given

SMILES	IC50 [nM]
CCCCc1nc2ccc(O)cc2c(=O)n1Cc1ccc(-c2ccccc2-c2nnn[nH]2)cc1	13
NS(=O)(=O)c1nccc(-c2ccccc2)c1-c1nn[nH]n1	201
NCCNC(=O)C[N+]12CC[N+](Cc3ccc(-c4ccc(C[C@H](C(=O)O)[C@H](Cc5ccccc5)C(=O)O)cc4)cc3)(CC1)CC2	2.8
CC(CS)C(=O)N1CCc2ccccc2C1C(=O)O (centres undefined)	7.4
NS(=O)(=O)c1cncc(-c2ccc(CO)cc2)c1-c1nn[nH]n1	670
Cc1ccc(-c2cccc(C(=O)O)c2-c2nnn[nH]2)cc1	6960
Nc1cc(-c2nnn[nH]2)c(S(N)(=O)=O)cc1S(N)(=O)=O	7
Cc1ccc(-c2cccc(S(=O)(=O)O)c2-c2nnn[nH]2)cc1	8640
CNS(=O)(=O)c1cccc(-c2ccc(C)cc2)c1-c1nnn[nH]1	18000
CCCc1c(OCc2cccc(-c3ccccc3-c3nnn[nH]3)c2)ccc(C(C)=O)c1O	23

tested on: not listed separately; test: Inhibition of GST-tagged bacterial beta-lactamase IMP-1 expressed in Escherichia coli BL21(DE3) using CCF2-FA as substrate by fluorescence assay; set-up: species or system Bacteria; details: not given

SMILES	IC50 [nM]
NS(=O)(=O)c1nccc(-c2ccccc2)c1-c1nn[nH]n1	375
CC(CS)C(=O)N1CCc2ccccc2C1C(=O)O (centres undefined)	2.7
NS(=O)(=O)c1cncc(-c2ccc(CO)cc2)c1-c1nn[nH]n1	678
Cc1ccc(-c2cccc(C(=O)O)c2-c2nnn[nH]2)cc1	2410
Nc1cc(-c2nnn[nH]2)c(S(N)(=O)=O)cc1S(N)(=O)=O	17
Cc1ccc(-c2cccc(S(=O)(=O)O)c2-c2nnn[nH]2)cc1	2360
CNS(=O)(=O)c1cccc(-c2ccc(C)cc2)c1-c1nnn[nH]1	> 20000
CCCc1c(OCc2cccc(-c3ccccc3-c3nnn[nH]3)c2)ccc(C(C)=O)c1O	1

tested on: Klebsiella pneumoniae; test: Antibacterial activity against Klebsiella pneumoniae MB9249 expressing IMP-26 infected in cyclophosphamide treated DBA/2 mouse assessed as reduction in bacterial burden in kidney at 5 mg/kg, sc administered three times for 1 day and measured after 24 hrs post injection; assay type: functional, organism-based; details: not given

SMILES	Activity
C[C@@H](O)[C@H]1C(=O)N2C(C(=O)O)=C(SCCNC=N)C[C@H]12	Active

tested on: not listed separately; test: Plasma protein binding in human assessed as unbound fraction; assay type: ADME, cell-free; details: not given

SMILES	fraction unbound
NS(=O)(=O)c1nccc(-c2ccc(CO)cc2)c1-c1nnn[nH]1	0.23

tested on: not listed separately; test: Tmax in mouse at 10 mg/kg, sc; assay type: ADME, organism-based; details: in vivo

SMILES	Tmax [min]
NS(=O)(=O)c1nccc(-c2ccc(CO)cc2)c1-c1nnn[nH]1	49.8

tested on: not listed separately; test: Volume of distribution at steady state in mouse at 5 mg/kg, iv; assay type: ADME, organism-based; details: in vivo, read-out: Vdss

SMILES	Vd [L/kg]
NS(=O)(=O)c1nccc(-c2ccc(CO)cc2)c1-c1nnn[nH]1	2.97

tested on: not listed separately; test: Cmax in mouse at 10 mg/kg, sc; assay type: ADME, organism-based; set-up: dose 10 mg/kg, route sc; details: in vivo

SMILES	Cmax [µM]
NS(=O)(=O)c1nccc(-c2ccc(CO)cc2)c1-c1nnn[nH]1	13.4

tested on: Klebsiella pneumoniae; test: Antibacterial activity against Klebsiella pneumoniae MB9249 expressing IMP-26 infected in cyclophosphamide treated DBA/2 mouse assessed as reduction in bacterial burden in spleen at 5 mg/kg, sc administered three times for 1 day and measured after 24 hrs post injection; assay type: functional, organism-based; details: not given

SMILES	Activity
C[C@@H](O)[C@H]1C(=O)N2C(C(=O)O)=C(SCCNC=N)C[C@H]12	Active
